{
  "source": "patent US10792236B2",
  "about": "“Dentifrice comprising zinc-amino acid complex” (Colgate-Palmolive Company, priority 2012, dated 2020)",
  "key": {"[1]": {"test": "pH of ZLC neat solution and final diluted samples", "format": "physicochemical", "settings": "for final pH value: diluted sample", "procedure": "(§1) A neat solution of ZLC is prepared by 1), reacting 0.5 mole of ZnO powder with 1 mole of lysine HCl in 1 liter of water at room temperature for about 2 hours, and 2) collecting the supernatant through centrifugation followed by filtration using a 0.45 micron membrane. The neat solution has a zinc concentration of 2.39% by weight, and a pH of about 7.03.\n(§2) Dilution experiment is conducted by mixing the neat solution with deionized water. The neat solution is diluted by 2×, 4×, 6×, 7×, 8×, 10×, 12×, 16×, 20×, 24×, 28×, and 32×, corresponding to initial zinc concentrations of 1.20%, 0.598%, 0.398%, 0.341%, 0.299%, 0.239%, 0.199%, 0.149%, 0.120%, 0.0996%, 0.0854%, 0.0747%, by weight, respectively. The diluted samples are kept at 37° C., and the rates at which flocculation/precipitation occurred are monitored.\npH values of final diluted samples are suitable for oral care applications. […] These pH values were well within the range of 5.5 to 10, which defines the suitable range for oral care formulations."}, "[2]": {"test": "Deposition/occlusion assay on dentine slices, confocal imaging", "set-up": "species or system human", "procedure": "The deposition/occlusion assay is conducted using human dentine slices and the neat solution of Example 5. The dentine slices were prepared by cutting human tooth into thin dentine sections of about 800 microns in thickness, choosing a test side, sanding said test side using a sandpaper of about 600 grit, polishing said test side using a Buehler polishing cloth and 5 micron Buehler aluminum oxide, acid-etching said dentine section in 1% (by weight) citric acid solution for about 20 seconds, sonicating said dentine section for 10 minutes, and storing said dentine section in phosphate buffered saline (PBS, pH 7.4).\nFor treatment, the neat solution is diluted 16-fold with water, yielding a treatment solution with initial zinc concentration of about 0.149% by weight. The dentine section is immersed in the treatment solution for 1 hour at 37° C. The treated dentine section is then removed from the treatment solution, and rinsed 4 times, each time with 1 mL of PBS. The dentine section is then dried using a paper-based tissue and examined under confocal microscope in both XYZ and XYZ modes. Subsequent treatments are conducted in the same manner.\nDentine sections, as prepared in Example 6, are repeatedly treated with ZLC dilutions with initial zinc concentration of 0.0747% by weight. […] The dentine section is examined under the confocal microscope after each treatment."}, "[3]": {"test": "Dilution experiment of ZLC neat solution: visible flocculation/precipitation at 37° C.", "format": "physicochemical", "procedure": "Various dilutions of ZLC are prepared to evaluate its efficiency in producing visible precipitates and/or flocculation, which can be delivered in situ onto an oral surface or into a dental opening, such as open tubules.\nas §1, §2"}},
  "note": "“And” between values parts separate entries of the source, which are not always exact repeats. Identical values can stand only once.",
  "data": [
    {"substance": "[Zn(C6H14N2O2)2Cl]^+ Cl^− [ZLC]", "values": [
      {"measurement": "final pH value", "setting": "[1]; initial zinc concentration 0.0747%", "result": 7.99},
      {"measurement": "final pH value", "setting": "[1]; initial zinc concentration 0.0854%", "result": 8.13},
      {"measurement": "final pH value", "setting": "[1]; initial zinc concentration 0.0996%", "result": 8.11},
      {"measurement": "final pH value", "setting": "[1]; initial zinc concentration 0.120%", "result": 7.97},
      {"measurement": "final pH value", "setting": "[1]; initial zinc concentration 0.149%", "result": 7.99},
      {"measurement": "final pH value", "setting": "[1]; initial zinc concentration 0.199 wt %", "result": 6.80},
      {"measurement": "final pH value", "setting": "[1]; initial zinc concentration 0.239%", "result": 6.70},
      {"measurement": "pH", "setting": "[1]; neat solution, zinc 2.39% by weight", "result": "about 7.03"},
      {"measurement": "deposition/occlusion on dentine surface", "setting": "[2]; 4 consecutive treatments, initial zinc 0.0747%, 10 minutes at 37° C. each", "result": "significant surface deposition"},
      {"measurement": "deposition/occlusion on dentine surface", "setting": "[2]; 12 consecutive treatments, initial zinc 0.0747%, 10 minutes at 37° C. each", "result": "complete surface coverage"},
      {"measurement": "visible precipitation during treatment", "setting": "[2]; 32-fold dilution, initial zinc 0.0747%, 10 minutes at 37° C.", "result": "no precipitation is observed by naked eyes"},
      {"measurement": "thickness of surface deposits", "setting": "[2]; after second treatment, 16-fold dilution, zinc about 0.149%", "result": "≥ 10", "unit": "microns"},
      {"measurement": "thickness of surface deposits", "setting": "[2]; after third treatment, 16-fold dilution, zinc about 0.149%", "result": "≥ 25", "unit": "microns"},
      {"measurement": "deposition/occlusion on dentine surface", "setting": "[2]; first treatment, neat solution diluted 16-fold, zinc about 0.149%, 1 hour at 37° C.", "result": "noticeable deposition"},
      {"measurement": "deposition/occlusion on dentine surface", "setting": "[2]; second treatment, 16-fold dilution, zinc about 0.149%, 1 hour at 37° C. each", "result": "complete surface coverage, including blocking of substantially all tubule openings"},
      {"measurement": "deposition/occlusion on dentine surface", "setting": "[2]; third treatment, 16-fold dilution, zinc about 0.149%, 1 hour at 37° C. each", "result": "complete surface coverage and complete blocking of tubule openings"},
      {"measurement": "samples with flocculation and/or precipitation", "setting": "[3]; after a total of 19 hours", "result": "all samples except the one with initial zinc concentration of 1.20%"},
      {"measurement": "initial zinc concentration of additional sample showing flocculation", "setting": "[3]; two hours after mixing", "result": 0.299, "unit": "%"},
      {"measurement": "initial zinc concentrations of dilutions with visible flocculation", "setting": "[3]; within 30 minutes from mixing with water", "result": "0.149% and 0.199%"}
    ]}
  ]
}
